Test results from PubChem BioAssay (NCI).
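Interpolation was linear, between the two tested concentrations surrounding the appropriate level; five concentrations were tested over 48 hours in 96-well plates. GI50 is the concentration that inhibits growth by half. The concentration for full growth arrest is given as TGI.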

Legend:
Assay in all cases: DTP human tumour cell line panel, 48 h
NCI-H460 lung = test system: NCI-H460 lung
HS 578T breast = test system: HS 578T breast
HOP-92 NSCLC = test system: HOP-92 NSCLC
K-562 leukemia = test system: K-562 leukemia
MDA-MB-468 breast = test system: MDA-MB-468 breast
CAKI-1 renal = test system: CAKI-1 renal
SF-539 CNS = test system: SF-539 CNS
DU-145 prostate = test system: DU-145 prostate
NCI-H522 lung = test system: NCI-H522 lung
OVCAR-4 ovarian = test system: OVCAR-4 ovarian
KM12 colon = test system: KM12 colon
SNB-19 CNS = test system: SNB-19 CNS
UACC-62 melanoma = test system: UACC-62 melanoma
T-47D breast = test system: T-47D breast
HOP-62 NSCLC = test system: HOP-62 NSCLC
NCI-H226 lung = test system: NCI-H226 lung
SR leukemia = test system: SR leukemia
HCT-15 colon = test system: HCT-15 colon
ACHN renal = test system: ACHN renal
HL-60(TB) leukemia = test system: HL-60(TB) leukemia
UACC-257 melanoma = test system: UACC-257 melanoma
OVCAR-5 ovarian = test system: OVCAR-5 ovarian
BT-549 breast = test system: BT-549 breast
SK-MEL-28 melanoma = test system: SK-MEL-28 melanoma
SF-268 CNS = test system: SF-268 CNS
SK-OV-3 ovarian = test system: SK-OV-3 ovarian
NCI/ADR-RES ovarian = test system: NCI/ADR-RES ovarian
786-0 renal = test system: 786-0 renal
MCF7 breast = test system: MCF7 breast
MDA-MB-435 = test system: MDA-MB-435
A498 renal = test system: A498 renal
TK-10 renal = test system: TK-10 renal
SW-620 colon = test system: SW-620 colon
MALME-3M melanoma = test system: MALME-3M melanoma
EKVX NSCLC = test system: EKVX NSCLC
HCC-2998 colon = test system: HCC-2998 colon
U251 CNS = test system: U251 CNS
A549 NSCLC = test system: A549 NSCLC
LOX IMVI melanoma = test system: LOX IMVI melanoma
NCI-H23 lung = test system: NCI-H23 lung
OVCAR-3 ovarian = test system: OVCAR-3 ovarian
MOLT-4 leukemia = test system: MOLT-4 leukemia
RXF 393 renal = test system: RXF 393 renal
PC-3 prostate = test system: PC-3 prostate
COLO 205 colon = test system: COLO 205 colon
SK-MEL-5 melanoma = test system: SK-MEL-5 melanoma
RPMI-8226 leukemia = test system: RPMI-8226 leukemia
SF-295 CNS = test system: SF-295 CNS
HCT-116 colon = test system: HCT-116 colon
CCRF-CEM leukemia = test system: CCRF-CEM leukemia
HT29 colon = test system: HT29 colon
IGROV1 ovarian = test system: IGROV1 ovarian
M14 melanoma = test system: M14 melanoma
OVCAR-8 ovarian = test system: OVCAR-8 ovarian
SN12C renal = test system: SN12C renal

`Cc1[nH]nc2ccc3nc(-c4cn[nH]c4C(F)(F)F)c4c(c3c12)CCCC4` gave a GI50 (NCI-H460 lung) of 3 µM, a TGI (NCI-H460 lung) of 13.1 µM and a GI50 (HS 578T breast) of 2.14 µM. For the same molecule, the TGI (HS 578T breast) was 5.19 µM, the GI50 (HOP-92 NSCLC) was 2.86 µM and the TGI (HOP-92 NSCLC) was 8.51 µM. The GI50 (K-562 leukemia) was 3.5 µM, the TGI (K-562 leukemia) was 19.9 µM and the GI50 (MDA-MB-468 breast) was 2.46 µM. It also gave a TGI (MDA-MB-468 breast) of 8.78 µM, a GI50 (CAKI-1 renal) of 3.3 µM and a TGI (CAKI-1 renal) of 11.8 µM. It also gave a GI50 (SF-539 CNS) of 2.03 µM, a TGI (SF-539 CNS) of 6.54 µM and a GI50 (DU-145 prostate) of 3.99 µM. The TGI (DU-145 prostate) was 18.5 µM, the GI50 (NCI-H522 lung) was 1.44 µM and the TGI (NCI-H522 lung) was 5.06 µM. It also gave a GI50 (OVCAR-4 ovarian) of 8.96 µM, a TGI (OVCAR-4 ovarian) of 21.2 µM and a GI50 (KM12 colon) of 2.82 µM. The TGI (KM12 colon) was 13.3 µM, the GI50 (SNB-19 CNS) was 5.14 µM and the TGI (SNB-19 CNS) was 17.9 µM. It also gave a GI50 (UACC-62 melanoma) of 2.09 µM, a TGI (UACC-62 melanoma) of 6.64 µM and a GI50 (T-47D breast) of 2.4 µM. For the same molecule, the TGI (T-47D breast) was 12.1 µM, the GI50 (HOP-62 NSCLC) was 3.53 µM and the TGI (HOP-62 NSCLC) was 12.5 µM. For the same molecule, the GI50 (NCI-H226 lung) was 5.15 µM, the TGI (NCI-H226 lung) was 43.7 µM and the GI50 (SR leukemia) was 1.56 µM. It also gave a TGI (SR leukemia) of 4.13 µM, a GI50 (HCT-15 colon) of 2.75 µM and a TGI (HCT-15 colon) of 9.34 µM. The GI50 (ACHN renal) was 2.26 µM, the TGI (ACHN renal) was 11.6 µM and the GI50 (HL-60(TB) leukemia) was 2.72 µM. For the same molecule, the TGI (HL-60(TB) leukemia) was 6.92 µM, the GI50 (UACC-257 melanoma) was 8.47 µM and the TGI (UACC-257 melanoma) was 22 µM. For the same molecule, the GI50 (OVCAR-5 ovarian) was 3.15 µM, the TGI (OVCAR-5 ovarian) was 13.7 µM and the GI50 (BT-549 breast) was 2.1 µM. It also gave a TGI (BT-549 breast) of 5.19 µM, a GI50 (SK-MEL-28 melanoma) of 3.79 µM and a TGI (SK-MEL-28 melanoma) of 14.2 µM. The GI50 (SF-268 CNS) was 2.99 µM, the TGI (SF-268 CNS) was 13.5 µM and the GI50 (SK-OV-3 ovarian) was 1.78 µM. It also gave a TGI (SK-OV-3 ovarian) of 5.31 µM, a GI50 (NCI/ADR-RES ovarian) of 11.7 µM and a TGI (NCI/ADR-RES ovarian) of 30.1 µM. It also gave a GI50 (786-0 renal) of 2.95 µM, a TGI (786-0 renal) of 12.5 µM and a GI50 (MCF7 breast) of 4.03 µM. The TGI (MCF7 breast) was 16.8 µM, the GI50 (MDA-MB-435) was 3.01 µM and the TGI (MDA-MB-435) was 11.2 µM. For the same molecule, the GI50 (A498 renal) was 2.32 µM, the TGI (A498 renal) was 6.77 µM and the GI50 (TK-10 renal) was 2.29 µM. It also gave a TGI (TK-10 renal) of 11.7 µM, a GI50 (SW-620 colon) of 2.48 µM and a TGI (SW-620 colon) of 11.3 µM. The GI50 (MALME-3M melanoma) was 4.04 µM, the TGI (MALME-3M melanoma) was 13.6 µM and the GI50 (EKVX NSCLC) was 2.84 µM. For the same molecule, the TGI (EKVX NSCLC) was 9.62 µM, the GI50 (HCC-2998 colon) was 3.52 µM and the TGI (HCC-2998 colon) was 12.6 µM. For the same molecule, the GI50 (U251 CNS) was 4.41 µM, the TGI (U251 CNS) was 17.6 µM and the GI50 (A549 NSCLC) was 3.54 µM. It also gave a TGI (A549 NSCLC) of 13 µM, a GI50 (LOX IMVI melanoma) of 3.55 µM and a TGI (LOX IMVI melanoma) of 13.1 µM. The GI50 (NCI-H23 lung) was 2.95 µM, the TGI (NCI-H23 lung) was 11 µM and the GI50 (OVCAR-3 ovarian) was 4.15 µM. For the same molecule, the TGI (OVCAR-3 ovarian) was 14.6 µM, the GI50 (MOLT-4 leukemia) was 2.16 µM and the TGI (MOLT-4 leukemia) was 5.89 µM. The GI50 (RXF 393 renal) was 1.37 µM, the TGI (RXF 393 renal) was 4.39 µM and the GI50 (PC-3 prostate) was 3.94 µM. For the same molecule, the TGI (PC-3 prostate) was 17.1 µM, the GI50 (COLO 205 colon) was 3.24 µM and the TGI (COLO 205 colon) was 10.9 µM. It also gave a GI50 (SK-MEL-5 melanoma) of 2.94 µM, a TGI (SK-MEL-5 melanoma) of 9.26 µM and a GI50 (RPMI-8226 leukemia) of 2.49 µM. For the same molecule, the TGI (RPMI-8226 leukemia) was 30.3 µM, the GI50 (SF-295 CNS) was 3.34 µM and the TGI (SF-295 CNS) was 14 µM. For the same molecule, the GI50 (HCT-116 colon) was 2.58 µM, the TGI (HCT-116 colon) was 10.3 µM and the GI50 (CCRF-CEM leukemia) was 3.49 µM. It also gave a TGI (CCRF-CEM leukemia) of 19.1 µM, a GI50 (HT29 colon) of 3.9 µM and a TGI (HT29 colon) of 12.7 µM. It also gave a GI50 (IGROV1 ovarian) of 2.61 µM, a TGI (IGROV1 ovarian) of 7.43 µM and a GI50 (M14 melanoma) of 2.77 µM. For the same molecule, the TGI (M14 melanoma) was 10.9 µM, the GI50 (OVCAR-8 ovarian) was 4.44 µM and the TGI (OVCAR-8 ovarian) was 18.7 µM. The GI50 (SN12C renal) was 3.31 µM and the TGI (SN12C renal) was 13.3 µM.
